{"source": "patent US12268665B2", "about": "“Combination of immunotherapies with MDM2 inhibitors” (ASCENTAGE PHARMA (SUZHOU) CO., LTD., priority 2018, dated 2025)", "key": {"[1]": {"test": "Phase I study APG-115-US-001: pharmacokinetics (LC/MS/MS, K2EDTA human plasma)", "format": "in vivo", "conditions": "dose range of 20-300 mg", "procedure": "For PK study of APG-115, APG-115 in K2EDTA human plasma was determined using an LC/MS/MS method using D5-APG-115 as the internal standard (IS). APG-115 and the IS were extracted using protein precipitation extraction from human plasma. […] MS/MS detection was set at mass transitions of m/z 642.3→246.3 for APG-115 and m/z 647.4→246.1 for D5-APG-115 (IS) in TIS positive mode."}, "[2]": {"tested_on": "serum MIC-1 (PD marker of TP53 activation)", "test": "Phase I study CTR20170975: pharmacodynamics", "format": "in vivo, human", "procedure": "(§1) Patients with advanced soft tissue sarcoma (STS), adenoid cystic carcinoma (ACC) or other solid tumors in China (CTR20170975) were treated with APG-115. In dose escalation, patients received APG-115 (100-200 mg) orally QOD for first 21 days of a 28-day cycle, until disease progression. Study objectives include safety (primary endpoint), pharmacokinetics (PK), pharmacodynamics (PD), and antitumor activity assessed every 8 weeks.\n(§2) This is a Phase I study (CTR20170975) is designed to assess the safety, dose-limiting toxicities (DLT), the maximum tolerated dose (MTD)/recommended phase 2 dose (RP2D), pharmacokinetics (PK), pharmacodynamics (PD) profile and anti-tumor activity of orally administered APG-115 in Chinese patients with advanced soft tissue sarcoma and other solid tumors."}, "[3]": {"tested_on": "stimulated mouse splenocytes", "test": "Cytokine production in stimulated mouse splenocytes (MSD V-PLEX)", "format": "cell-based", "conditions": "250 nM, 24 h", "procedure": "The effect of APG-115 on cytokine production in stimulated mouse splenocytes was investigated. Mouse splenocytes freshly isolated from mice were stimulated with 5 μg/ml plate-bound anti-CD3 and 2 μg/ml anti-CD28 in the presence of APG-115 (250 nM) or DMSO for 24 h. After the treatment, supernatants were collected from the cell cultures and then cytokines were measured by MSD V-PLEX kit which enabled to test 10 cytokines."}, "[4]": {"tested_on": "tumor infiltrating cells in MC38 tumors", "test": "TIL analysis by flow cytometry, p53mut MC38 tumors", "format": "in vivo", "procedure": "The live/dead fixable dye (Invitrogen) was used to exclude dead cells. The FOXP3 kit from eBioscience was used for FOXP3 staining. Cells were washed and stained for 30 min on ice with indicated antibodies in MACS buffer or Brilliant staining buffer. Samples were than analyzed on Life Technology Attune NxT flow cytometer."}, "[5]": {"tested_on": "MH-22A syngeneic tumor model", "test": "Efficacy in the TIL analysis study, MH-22A model (d7)", "format": "in vivo, mouse", "conditions": "APG-115 10 mg/kg p.o. q2d; anti-PD-1 5 mg/kg i.p. biw; epacadostat 100 mg/kg p.o. bid; × 6 d", "procedure": "Each mouse was inoculated subcutaneously at the right flank region with MH-22A tumor cells (5×10^6) in 0.2 mL of PBS for tumor development. The treatments were started when the mean tumor size reached 60 mm^3. The test articles were administered to the tumor-bearing mice according to the regimen shown in the experimental design Table 6. The day of start dosing was defined as d1.\nMice bearing MH-22A murine hepatoma tumors were treated with various agent(s) under different regimens as indicated. Isotype control antibody was included in the control."}, "[6]": {"tested_on": "advanced soft tissue sarcoma and other solid tumors", "test": "Phase I study CTR20170975: antitumor activity", "format": "in vivo, human", "procedure": "as §1, §2\nAmong of the 14 patients, post baseline tumor measurements were obtained in 13 patients, as one subject was just starting the treatment of Cycle 2."}, "[7]": {"test": "Phase I study CTR20170975 in Chinese patients: safety", "format": "in vivo, human", "procedure": "as §1, §2\nSingle dose escalation study was conducted. A standard “3+3” design was employed to determine the maximum tolerated dose (MTD) of APG-115 by assessing the dose limiting toxicity (DLT) of APG-115. Three dose levels of APG-115 was tested: 100, 150, 200 mg. APG-115 was administrated orally every other day (QOD) for a consecutive 3 weeks (i.e. dosed at Day 1, 3, 5, 7, 9, 11, 13, 15, 17, 19, and 21), with one week dosing off as 4-weeks a cycle. […] The scheme of the trial design is provided below.\nThis study was conducted with an initial dosage of […], according to the preliminary safety results in phase I study of APG-115 in the US."}, "serum MIC-1": {"tested_on": "serum MIC-1", "test": "Phase Ib/II study with pembrolizumab: pharmacodynamics", "format": "in vivo, human", "conditions": "after APG-115 treatment, preliminary", "procedure": "In the dose escalation study, APG-115 is combined with pembrolizumab of for the treatment of patients with metastatic solid tumor. Four dose levels of APG-115 are tested: 50, 100, 150, and 200 mg. APG-115 is administrated orally every other day (QOD) for consecutive 2 weeks of a 21-day-cycle. Pembrolizumab is administrated at 200 mg IV on day 1 of a 21-day-cycle. The primary objectives of the dose escalation study is to determine safety, tolerability, and determination of MTD and RP2D; other anti-tumor assessments (assessed per RECIST v1.1 every 6 weeks) are the secondary objectives."}}, "data": [{"smiles": "CCN1[C@@H](C(=O)NC23CCC(C(=O)O)(CC2)CC3)[C@H](c2cccc(Cl)c2F)[C@]2(C(=O)Nc3cc(Cl)ccc32)C12CCCCC2", "note": "[APG-115]", "values": [{"measurement": "AUC and Cmax versus dose", "setting": "[1]", "result": "generally increase dose proportionally"}, {"measurement": "serum MIC-1 levels", "setting": "[2]; APG-115 doses ≥100 mg, preliminary", "result": "elevated from individual baseline"}, {"measurement": "MIC-1 increase", "setting": "[2]; within the dose range tested (Example 5)", "result": "exposure dependent"}, {"measurement": "Serum MIC-1 increase", "setting": "[2]; within the dose range tested (Example 8)", "result": "exposure dependent"}, {"measurement": "expression levels of IL-1β, IL-5, KC/GRO, IL-12p70", "setting": "[3]", "result": "below detection limit"}, {"measurement": "inflammatory cytokines including IFN-γ, IL-2, TNF-α, IL-10 and IL-4", "setting": "[3]; anti-CD3/anti-CD28 stimulated", "result": "upregulation"}, {"measurement": "CD4+ T cells, NK cells, MDSCs, and regulatory T (Treg) cells", "setting": "[4]", "result": "no significant changes"}, {"measurement": "RTV (Mean) d7", "setting": "[5]", "result": 12.8}, {"measurement": "T/C (%) d7", "setting": "[5]", "result": 83, "unit": "%"}, {"measurement": "target lesion decrease in the PR patient", "setting": "[6]; 150 mg, after 4 months withdraw, RECIST", "result": "~64", "unit": "%"}, {"measurement": "confirmed PR (Partial Response), patients", "setting": "[6]; 150 mg, lipomatoid liposarcoma, TP53-WT and MDM2 Amp", "result": 1}, {"measurement": "partial response, patients", "setting": "[6]; 150 mg, liposarcoma with MDM2 amplification and TP53 wt (Example 5)", "result": 1}, {"measurement": "patients with SD as the best overall response", "setting": "[6]; 13 patients (Example 5)", "result": 5}, {"measurement": "MTD", "setting": "[7]; QOD, 21 days on 7 days off", "result": 150, "unit": "mg"}, {"measurement": "Adverse Event: Abdominal distension", "setting": "[7]; human, in vivo", "result": "2 (14.3%)"}, {"measurement": "Adverse Event: Abdominal pain", "setting": "[7]; human, in vivo", "result": "2 (14.3%)"}, {"measurement": "Adverse Event: Anaemia", "setting": "[7]; human, in vivo", "result": "11 (78.6%)"}, {"measurement": "Adverse Event: Any AE", "setting": "[7]; human, in vivo", "result": "14 (100.0%)"}, {"measurement": "Adverse Event: Asthenia", "setting": "[7]; human, in vivo", "result": "2 (14.3%)"}, {"measurement": "Adverse Event: Blood alkaline phosphatase increased", "setting": "[7]; human, in vivo", "result": "2 (14.3%)"}, {"measurement": "Adverse Event: Blood creatinine increased", "setting": "[7]; human, in vivo", "result": "2 (14.3%)"}, {"measurement": "Adverse Event: Cancer pain", "setting": "[7]; human, in vivo", "result": "2 (14.3%)"}, {"measurement": "Adverse Event: Decreased appetite", "setting": "[7]; human, in vivo", "result": "2 (14.3%)"}, {"measurement": "Adverse Event: Febrile neutropenia", "setting": "[7]; human, in vivo", "result": "2 (14.3%)"}, {"measurement": "Adverse Event: Gamma-glutamyltransferase increased", "setting": "[7]; human, in vivo", "result": "4 (28.6%)"}, {"measurement": "Adverse Event: Headache", "setting": "[7]; human, in vivo", "result": "2 (14.3%)"}, {"measurement": "Adverse Event: Hypercholesterolaemia", "setting": "[7]; human, in vivo", "result": "8 (57.1%)"}, {"measurement": "Adverse Event: Hypertriglyceridaemia", "setting": "[7]; human, in vivo", "result": "5 (35.7%)"}, {"measurement": "Adverse Event: Hyperuricaemia", "setting": "[7]; human, in vivo", "result": "3 (21.4%)"}, {"measurement": "Adverse Event: Hypoalbuminaemia", "setting": "[7]; human, in vivo", "result": "7 (50.0%)"}, {"measurement": "Adverse Event: Hypokalaemia", "setting": "[7]; human, in vivo", "result": "3 (21.4%)"}, {"measurement": "Adverse Event: Insomnia", "setting": "[7]; human, in vivo", "result": "2 (14.3%)"}, {"measurement": "Adverse Event: Low density lipoprotein increased", "setting": "[7]; human, in vivo", "result": "2 (14.3%)"}, {"measurement": "Adverse Event: Nausea", "setting": "[7]; human, in vivo", "result": "5 (35.7%)"}, {"measurement": "Adverse Event: Neutrophil count decreased", "setting": "[7]; human, in vivo", "result": "5 (35.7%)"}, {"measurement": "Adverse Event: Oedemaperipheral", "setting": "[7]; human, in vivo", "result": "3 (21.4%)"}, {"measurement": "Adverse Event: Platelet count decreased", "setting": "[7]; human, in vivo", "result": "9 (64.3%)"}, {"measurement": "Adverse Event: Vomiting", "setting": "[7]; human, in vivo", "result": "8 (57.1%)"}, {"measurement": "Adverse Event: White blood cell count decreased", "setting": "[7]; human, in vivo", "result": "7 (50.0%)"}, {"measurement": "Grade 3 Adverse Event: Anaemia", "setting": "[7]; human, in vivo", "result": "5 (35.7%)"}, {"measurement": "Grade 3 Adverse Event: Any AE", "setting": "[7]; human, in vivo", "result": "10 (71.4%)"}, {"measurement": "Grade 3 Adverse Event: Blood creatinine increased", "setting": "[7]; human, in vivo", "result": "1 (7.1%)"}, {"measurement": "Grade 3 Adverse Event: Dyspnoea", "setting": "[7]; human, in vivo", "result": "1 (7.1%)"}, {"measurement": "Grade 3 Adverse Event: Febrile neutropenia", "setting": "[7]; human, in vivo", "result": "2 (14.3%)"}, {"measurement": "Grade 3 Adverse Event: Lipase increased", "setting": "[7]; human, in vivo", "result": "1 (7.1%)"}, {"measurement": "Grade 3 Adverse Event: Neutrophil count decreased", "setting": "[7]; human, in vivo", "result": "4 (28.6%)"}, {"measurement": "Grade 3 Adverse Event: Platelet count decreased", "setting": "[7]; human, in vivo", "result": "6 (42.9%)"}, {"measurement": "Grade 3 Adverse Event: Pulmonary embolism", "setting": "[7]; human, in vivo", "result": "1 (7.1%)"}, {"measurement": "Grade 3 Adverse Event: Ureteric obstruction", "setting": "[7]; human, in vivo", "result": "1 (7.1%)"}, {"measurement": "Grade 3 Adverse Event: Vomiting", "setting": "[7]; human, in vivo", "result": "2 (14.3%)"}, {"measurement": "Grade 3 Adverse Event: White blood cell count decreased", "setting": "[7]; human, in vivo", "result": "4 (28.6%)"}, {"measurement": "Grade 3 or 4 TRAE: anaemia", "setting": "[7]; human, in vivo", "result": 38.5, "unit": "%"}, {"measurement": "Grade 3 or 4 TRAE: leukopenia", "setting": "[7]; human, in vivo", "result": 30.8, "unit": "%"}, {"measurement": "Grade 3 or 4 TRAE: neutropenia", "setting": "[7]; human, in vivo", "result": 23.1, "unit": "%"}, {"measurement": "Grade 3 or 4 TRAE: thrombocytopenia", "setting": "[7]; human, in vivo", "result": 38.5, "unit": "%"}, {"measurement": "RP2D", "setting": "[7]; human, in vivo", "result": 100, "unit": "mg"}, {"measurement": "SAE, % of pts", "setting": "[7]; human, in vivo", "result": 54, "unit": "%"}, {"measurement": "SAE, pts", "setting": "[7]; human, in vivo", "result": 7, "unit": "pts"}, {"measurement": "most common Grade 3 or 4 AEs", "setting": "[7]; human, in vivo", "result": "hematologic toxicities, particularly thrombocytopenia"}, {"measurement": "serum MIC-1 levels", "setting": "serum MIC-1", "result": "elevated"}]}]}
